Laboratory results from ChEMBL document CHEMBL4414672, “Synthesis of certain benzothieno[3,2-d]pyrimidine derivatives as a selective SIRT2 inhibitors” (Eur J Med Chem, 2020).

What was measured:
Type in all cases: functional
[1] = system: UO-31; assay: Growth inhibition of human UO31 cells at 10^-5 M incubated for 48 hrs by sulforhodamine B assay; details: UO-31, 48 h, read-out: GI
[2] = system: RXF 393; assay: Growth inhibition of human RXF393 cells at 10^-5 M incubated for 48 hrs by sulforhodamine B assay; details: RXF 393, 48 h, read-out: GI
[3] = system: M14; assay: Growth inhibition of human M14 cells at 10^-5 M incubated for 48 hrs by sulforhodamine B assay; details: M14, 48 h, read-out: GI
[4] = system: HCT-116; assay: Growth inhibition of human HCT116 cells at 10^-5 M incubated for 48 hrs by sulforhodamine B assay; details: HCT-116, 48 h, read-out: GI
[5] = system: NCI-H23; assay: Growth inhibition of human NCI-H23 cells at 10^-5 M incubated for 48 hrs by sulforhodamine B assay; details: NCI-H23, 48 h, read-out: GI
[6] = system: HOP-62; assay: Growth inhibition of human HOP62 cells at 10^-5 M incubated for 48 hrs by sulforhodamine B assay; details: HOP-62, 48 h, read-out: GI
[7] = system: NCI-H460; assay: Growth inhibition of human NCI-H460 cells at 10^-5 M incubated for 48 hrs by sulforhodamine B assay; details: NCI-H460, 48 h, read-out: GI
[8] = system: SK-MEL-2; assay: Growth inhibition of human SK-MEL-2 cells at 10^-5 M incubated for 48 hrs by sulforhodamine B assay; details: SK-MEL-2, 48 h, read-out: GI
[9] = system: SF-268; assay: Growth inhibition of human SF268 cells at 10^-5 M incubated for 48 hrs by sulforhodamine B assay; details: SF-268, 48 h, read-out: GI
[10] = system: SK-OV-3; assay: Growth inhibition of human SKOV3 cells at 10^-5 M incubated for 48 hrs by sulforhodamine B assay; details: SK-OV-3, 48 h, read-out: GI
[11] = system: SK-MEL-5; assay: Growth inhibition of human SK-MEL-5 cells at 10^-5 M incubated for 48 hrs by sulforhodamine B assay; details: SK-MEL-5, 48 h, read-out: GI
[12] = system: U-251; assay: Growth inhibition of human U251 cells at 10^-5 M incubated for 48 hrs by sulforhodamine B assay; details: U-251, 48 h, read-out: GI
[13] = system: HOP-92; assay: Growth inhibition of human HOP92 cells at 10^-5 M incubated for 48 hrs by sulforhodamine B assay; details: HOP-92, 48 h, read-out: GI
[14] = system: OVCAR-8; assay: Growth inhibition of human OVCAR8 cells at 10^-5 M incubated for 48 hrs by sulforhodamine B assay; details: OVCAR-8, 48 h, read-out: GI
[15] = system: KM12; assay: Growth inhibition of human KM12 cells at 10^-5 M incubated for 48 hrs by sulforhodamine B assay; details: KM12, 48 h, read-out: GI
[16] = system: HL-60(TB); assay: Growth inhibition of human HL-60(TB) cells at 10^-5 M incubated for 48 hrs by sulforhodamine B assay; details: HL-60, 48 h, read-out: GI
[17] = system: 786-0; assay: Growth inhibition of human 786-0 cells at 10^-5 M incubated for 48 hrs by sulforhodamine B assay; details: 786-0, 48 h, read-out: GI
[18] = system: NCI/ADR-RES; assay: Growth inhibition of human NCI/ADR-RES cells at 10^-5 M incubated for 48 hrs by sulforhodamine B assay; details: read-out: GI
[19] = system: K562; assay: Growth inhibition of human K562 cells at 10^-5 M incubated for 48 hrs by sulforhodamine B assay; details: K562, 48 h, read-out: GI
[20] = system: MDA-MB-231; assay: Growth inhibition of human MDA-MB-231 cells at 10^-5 M incubated for 48 hrs by sulforhodamine B assay; details: MDA-MB-231, 48 h, read-out: GI

Compound	inhibition of growth at 10 µM [1] [%]	inhibition of growth at 10 µM [2] [%]	inhibition of growth at 10 µM [3] [%]	inhibition of growth at 10 µM [4] [%]	inhibition of growth at 10 µM [5] [%]	inhibition of growth at 10 µM [6] [%]	inhibition of growth at 10 µM [7] [%]	inhibition of growth at 10 µM [8] [%]	inhibition of growth at 10 µM [9] [%]	inhibition of growth at 10 µM [10] [%]	inhibition of growth at 10 µM [11] [%]	inhibition of growth at 10 µM [12] [%]	inhibition of growth at 10 µM [13] [%]	inhibition of growth at 10 µM [14] [%]	inhibition of growth at 10 µM [15] [%]	inhibition of growth at 10 µM [16] [%]	inhibition of growth at 10 µM [17] [%]	inhibition of growth at 10 µM [18] [%]	inhibition of growth at 10 µM [19] [%]	inhibition of growth at 10 µM [20] [%]
N=C1Nc2c(sc3ccc(Cl)cc23)C(c2cccc(Br)c2)N1 (stereo not given)	38.3	-10.1	1.65	3.22	13.7	8.49	1.37	-8.11	6.03	7.9	3.53	-3.32	3.3	-2.43	6.3	-2.27	5.21	2.51	13.7	12.6
Oc1ccccc1C1NC(=S)Nc2c1sc1ccc(Cl)cc21 (stereo not given)	-8.34	2.85	7.43	8.97	19.4	5.51	1.28	7.35	8.44	8.48	6.32	-5.09	13.4	5.15	1.3	-4.7	6.17	9.4	8.3	27.4
O=[N+]([O-])c1cccc(C2NC(=S)Nc3c2sc2ccc(Cl)cc32)c1 (stereo not given)	-6.1	-9.88	2.86	13.4	14.5	21.8	11.4	-9.95	4.17	10.5	4.44	4.4	6.43	4.42	1.91	-2.41	1.48	-1.46	10.6	23.7
O=[N+]([O-])c1cccc(C2c3sc4ccc(Cl)cc4c3N=C3NN=NN32)c1 (stereo not given)	14.5	0	-10.9	-7.64	1.39	0.43	6.19	-23	-8.1	6.39	-10.9	3.96	12.8	-4.72	-1.99	-9.93	9.33	3.11	-7.43	-4.1
O=C1CC(=O)N(C2=Nc3c(sc4ccc(Cl)cc34)C(c3cccc([N+](=O)[O-])c3)N2)N1 (stereo not given)	38	10.9	-11.3	0.7	14.7	9.64	2.81	-3.18	-5.71	1.27	5.38	-10.9	-17.6	-4.71	-3.57	-8	-4.83	-2.89	0.75	11.8
O=C1Nc2c(sc3ccc(Cl)cc23)C(c2ccc3ccccc3c2)N1 (stereo not given)	37.4	-10.1	6.72	-4.42	11.7	13.9	2.77	0.12	6.94	16.8	1.82	1.75	24.7	6.44	-4.05	5.39	6.06	-2.33	14	14.8
O=C1/C(=C\c2cccc([N+](=O)[O-])c2)Sc2ccc(Cl)cc21	11.3	15.7	4.61	45.9	16.7	-0.47	-5.14	12.4	7.22	5.38	8.13	13.8	42.7	0.87	-2.29	-10.8	-1.44	7.92	10.5	9.23
O=C1Nc2c(sc3ccc(Cl)cc23)C(c2cccc([N+](=O)[O-])c2)N1 (stereo not given)	35.2	-8.11	2.62	5.37	9.8	8.74	3.38	2.08	6.35	3.88	2.85	6.51	17.8	4.06	3.73	1.94	4.42	6.5	12.9	12.5
O=C1/C(=C\c2cccc(Br)c2)Sc2ccc(Cl)cc21	-29.1	-5.49	-1.09	0.42	8.26	3.1	-7.98	-5.68	2.33	5.77	1.63	-3.45	-15.1	-3.52	-0.19	-5.53	-3.61	-2.33	-7.99	-3.31
N=C1Nc2c(sc3ccc(Cl)cc23)C(c2ccc3ccccc3c2)N1 (stereo not given)	14.6	0.36	-0.34	10.6	5.66	13.8	13.2	-16.2	-5.53	-0.13	-0.53	-0.54	8.76	-3.15	3.41	-3.45	5.33	1.25	6.06	-0.83
